# Measured values as given in PubChem BioAssay AID328 (DTP/NCI, 2004).
# Several values for one entry are separate records, joined by “and”; a condition that tells them apart may be missing. Equal values may be shown once. Toxic doses and inconclusive results are not listed.
# System: BDF1 mice, P388 leukemia ip, median survival T/C
# Assay: NCI In Vivo Anticancer Drug Screen. Data for tumor model P388 Leukemia (intraperitoneal) in B6D2F1 (BDF1) mice
# Settings: endpoint: median survival time, higher = longer survival
# Outline: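 Each value expresses how treatment altered survival: treated-mouse outcome over vehicle-mouse outcome, both groups bearing the transplanted tumour.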
# [1] = dose: 25.0 mg/kg/injection, schedule: Q01DX009 (ip), vehicle: saline
# [2] = dose: 50.0 mg/kg/injection, schedule: Q01DX009 (ip), vehicle: saline
# [3] = dose: 50.0 mg/kg/injection, schedule: Q04DX003 (ip), vehicle: saline
# [4] = dose: 100.0 mg/kg/injection, schedule: Q01DX009 (ip), vehicle: saline
# [5] = dose: 100.0 mg/kg/injection, schedule: Q04DX003 (ip), vehicle: saline
# [6] = dose: 200.0 mg/kg/injection, schedule: Q04DX003 (ip), vehicle: saline
# [7] = dose: 100.0 mg/kg/injection, schedule: Q04DX003 (ip), vehicle: saline with Tween-80
# [8] = dose: 200.0 mg/kg/injection, schedule: Q04DX003 (ip), vehicle: saline with Tween-80
# [9] = dose: 400.0 mg/kg/injection, schedule: Q04DX003 (ip), vehicle: saline with Tween-80
# [10] = dose: 100.0 mg/kg/injection, schedule: Q01DX009 (ip), vehicle: saline with Tween-80
# [11] = dose: 200.0 mg/kg/injection, schedule: Q01DX009 (ip), vehicle: saline with Tween-80
# [12] = dose: 100.0 mg/kg/injection, schedule: Q04DX003 (ip), vehicle: saline sonified
# [13] = dose: 50.0 mg/kg/injection, schedule: Q01DX009 (ip), vehicle: saline with Tween-80
# [14] = dose: 100.0 mg/kg/injection, schedule: Q01DX009 (ip), vehicle: Klucel (hydroxypropylcellulose) (HPC)
# [15] = dose: 400.0 mg/kg/injection, schedule: Q01DX009 (ip), vehicle: Klucel (hydroxypropylcellulose) (HPC)
# [16] = dose: 100.0 mg/kg/injection, schedule: Q04DX003 (ip), vehicle: Klucel (hydroxypropylcellulose) (HPC)
# [17] = dose: 200.0 mg/kg/injection, schedule: Q01DX009 (ip), vehicle: saline
compound,measurement,setting,value
COc1ccc(/C=C/C(=N\O)c2ccc(OC)c(OC)c2)cc1OC,T/C,[1],118 % of control
same,T/C,"dose: 25.0 mg/kg/injection, schedule: Q04DX003 (ip), vehicle: saline",105 % of control
same,T/C,[2],97 % of control
same,T/C,[3],96 % of control
same,T/C,[4],120 % of control
same,T/C,[5],105 % of control
same,T/C,[6],114 % of control
same,T/C,"dose: 400.0 mg/kg/injection, schedule: Q01DX009 (ip), vehicle: saline",103 % of control
same,T/C,"dose: 400.0 mg/kg/injection, schedule: Q04DX003 (ip), vehicle: saline",105 % of control
O=C(CC(O)(C(F)(F)F)C(F)(F)F)c1ccccc1Cl,T/C,[7],120 % of control
same,T/C,[8],100 % of control
same,T/C,[9],120 % of control
CCOC(=O)CC(=O)N/N=C(/C)C(=O)OCC,T/C,[10],108 % of control
same,T/C,[7],88 % of control
same,T/C,[11],99 % of control
same,T/C,[8],97 % of control
same,T/C,[9],111 % of control
COc1cc(C=Nc2cccc(F)c2)ccc1N(CCCl)CCCl,T/C,"dose: 1.25 mg/kg/injection, schedule: Q01DX009 (ip), vehicle: other",180 % of control
same,T/C,"dose: 2.5 mg/kg/injection, schedule: Q01DX009 (ip), vehicle: other",195 % of control
same,T/C,"dose: 3.13 mg/kg/injection, schedule: Q01DX009 (ip), vehicle: other",168 % of control
same,T/C,"dose: 5.0 mg/kg/injection, schedule: Q01DX009 (ip), vehicle: other",280 % of control
same,T/C,"dose: 6.25 mg/kg/injection, schedule: Q01DX009 (ip), vehicle: other",181 % of control
same,T/C,"dose: 12.5 mg/kg/injection, schedule: Q01DX009 (ip), vehicle: other",95 % of control
same,T/C,"dose: 25.0 mg/kg/injection, schedule: Q04DX003 (ip), vehicle: saline sonified",95 % of control
same,T/C,"dose: 50.0 mg/kg/injection, schedule: Q04DX003 (ip), vehicle: saline sonified",100 % of control
same,T/C,[12],195 % of control
CC(=O)Nc1ccc2[nH]c(C)cc(=O)c2c1,T/C,"dose: 25.0 mg/kg/injection, schedule: Q01DX009 (ip), vehicle: water",94 % of control
same,T/C,"dose: 50.0 mg/kg/injection, schedule: Q01DX009 (ip), vehicle: water",94 % of control
same,T/C,"dose: 50.0 mg/kg/injection, schedule: Q04DX003 (ip), vehicle: water",101 % of control
same,T/C,"dose: 100.0 mg/kg/injection, schedule: Q01DX009 (ip), vehicle: water",92 % of control
same,T/C,"dose: 100.0 mg/kg/injection, schedule: Q04DX003 (ip), vehicle: water",106 % of control
same,T/C,"dose: 200.0 mg/kg/injection, schedule: Q01DX009 (ip), vehicle: water",91 % of control
same,T/C,"dose: 200.0 mg/kg/injection, schedule: Q04DX003 (ip), vehicle: water",95 % of control
same,T/C,"dose: 400.0 mg/kg/injection, schedule: Q01DX009 (ip), vehicle: water",92 % of control
same,T/C,"dose: 400.0 mg/kg/injection, schedule: Q04DX003 (ip), vehicle: water",113 % of control
C1=C(c2ccccc2)[P+](c2ccccc2)(c2ccccc2)C=C(c2ccccc2)[P+]1(c1ccccc1)c1ccccc1,T/C,"dose: 11.0 mg/kg/injection, schedule: Q04DX003 (ip), vehicle: saline",115 % of control
same,T/C,"dose: 12.5 mg/kg/injection, schedule: Q04DX003 (ip), vehicle: saline",123 % of control
same,T/C,"dose: 17.0 mg/kg/injection, schedule: Q04DX003 (ip), vehicle: saline",123 % of control
same,T/C,"dose: 37.0 mg/kg/injection, schedule: Q04DX003 (ip), vehicle: saline",100 % of control
same,T/C,[3],119 % of control
O=[N+]([O-])c1ccc2[nH]c3c(c2c1)CSCC3,T/C,[13],100 % of control
same,T/C,[14],100 % of control
same,T/C,[10],96 % of control
same,T/C,[7],109 % of control
same,T/C,"dose: 200.0 mg/kg/injection, schedule: Q01DX009 (ip), vehicle: Klucel (hydroxypropylcellulose) (HPC)",90 % of control
same,T/C,[8],107 % of control
same,T/C,[15],86 % of control
same,T/C,"dose: 400.0 mg/kg/injection, schedule: Q01DX009 (ip), vehicle: saline with Tween-80",91 % of control
same,T/C,[9],110 % of control
CCCCCCCCCCCCCCCCCCOC(=O)Cc1ccc(N(CCCl)CCCl)cc1,T/C,"dose: 50.0 mg/kg/injection, schedule: Q04DX002 (ip), vehicle: Klucel (hydroxypropylcellulose) (HPC)",123 % of control
same,T/C,"dose: 66.0 mg/kg/injection, schedule: Q01DX007 (ip), vehicle: Klucel (hydroxypropylcellulose) (HPC)",153 % of control
same,T/C,"dose: 100.0 mg/kg/injection, schedule: Q01DX007 (ip), vehicle: Klucel (hydroxypropylcellulose) (HPC)",165 % of control
same,T/C,[14],150 % of control
same,T/C,"dose: 100.0 mg/kg/injection, schedule: Q04DX002 (ip), vehicle: Klucel (hydroxypropylcellulose) (HPC)",104 % of control
same,T/C,[16],113 % of control
same,T/C,"dose: 150.0 mg/kg/injection, schedule: Q01DX007 (ip), vehicle: Klucel (hydroxypropylcellulose) (HPC)",173 % of control
same,T/C,"dose: 180.0 mg/kg/injection, schedule: Q04DX003 (ip), vehicle: saline with Tween-80",100 % of control
same,T/C,"dose: 200.0 mg/kg/injection, schedule: Q04DX003 (ip), vehicle: Klucel (hydroxypropylcellulose) (HPC)",118 % of control
same,T/C,[15],123 % of control
same,T/C,"dose: 400.0 mg/kg/injection, schedule: Q04DX002 (ip), vehicle: Klucel (hydroxypropylcellulose) (HPC)",180 % of control
same,T/C,"dose: 400.0 mg/kg/injection, schedule: Q04DX003 (ip), vehicle: Klucel (hydroxypropylcellulose) (HPC)",250 % of control and 159 % of control
same,T/C,[9],166 % of control
same,T/C,"dose: 600.0 mg/kg/injection, schedule: Q04DX003 (ip), vehicle: Klucel (hydroxypropylcellulose) (HPC)",208 % of control
same,T/C,"dose: 600.0 mg/kg/injection, schedule: Q04DX003 (ip), vehicle: saline with Tween-80",150 % of control
Nc1nc(=S)c2[nH]c(N=Nc3ccc(S(=O)(=O)Nc4nccs4)cc3)nc2[nH]1,T/C,"dose: 25.0 mg/kg/injection, schedule: Q01DX001 (ip), vehicle: Klucel (hydroxypropylcellulose) (HPC)",115 % of control
same,T/C,"dose: 100.0 mg/kg/injection, schedule: Q01DX001 (ip), vehicle: Klucel (hydroxypropylcellulose) (HPC)",117 % of control
same,T/C,"dose: 200.0 mg/kg/injection, schedule: Q01DX001 (ip), vehicle: Klucel (hydroxypropylcellulose) (HPC)",120 % of control
Cc1ncc(CO)c(C2NOCc3ccc(Cl)cc32)c1O (configuration not stated),T/C,"dose: 12.5 mg/kg/injection, schedule: Q01DX009 (ip), vehicle: Klucel (hydroxypropylcellulose) (HPC)",104 % of control
same,T/C,"dose: 25.0 mg/kg/injection, schedule: Q01DX009 (ip), vehicle: Klucel (hydroxypropylcellulose) (HPC)",86 % of control
same,T/C,"dose: 25.0 mg/kg/injection, schedule: Q04DX003 (ip), vehicle: Klucel (hydroxypropylcellulose) (HPC)",111 % of control
same,T/C,"dose: 50.0 mg/kg/injection, schedule: Q04DX003 (ip), vehicle: Klucel (hydroxypropylcellulose) (HPC)",105 % of control
same,T/C,[16],122 % of control
CCn1cnc2c(SC3CCCC3)ncnc21,T/C,[12],100 % of control
same,T/C,"dose: 200.0 mg/kg/injection, schedule: Q04DX003 (ip), vehicle: saline sonified",100 % of control
same,T/C,"dose: 400.0 mg/kg/injection, schedule: Q04DX003 (ip), vehicle: saline sonified",100 % of control
Cn1c(=O)c(-c2ccccc2)[n+]([O-])c2ccccc21,T/C,"dose: 25.0 mg/kg/injection, schedule: Q01DX009 (ip), vehicle: saline with Tween-80",98 % of control
same,T/C,[13],107 % of control
same,T/C,[10],100 % of control
same,T/C,[11],113 % of control
CCC(O)Cc1c[nH]c(=O)[nH]c1=O (configuration not stated),T/C,[2],90 % of control
same,T/C,[3],104 % of control
same,T/C,[4],105 % of control
same,T/C,[5],102 % of control
same,T/C,[17],112 % of control
same,T/C,[6],109 % of control
CC([N+](=O)[O-])S(=O)(=O)c1ccc(Cl)cc1 (configuration not stated),T/C,"dose: 50.0 mg/kg/injection, schedule: Q01DX001 (ip), vehicle: saline sonified",95 % of control
same,T/C,"dose: 100.0 mg/kg/injection, schedule: Q01DX001 (ip), vehicle: saline sonified",100 % of control
same,T/C,"dose: 200.0 mg/kg/injection, schedule: Q01DX001 (ip), vehicle: saline sonified",100 % of control
COc1cc(C(=O)N(C)C)cc(OC)c1OC,T/C,[1],112 % of control
same,T/C,[2],98 % of control
same,T/C,[4],98 % of control
same,T/C,[17],101 % of control
